We go through 4 compounds from US20050020556A1, “Method for treating diseases using HSP90-inhibiting agents in combination with platinum coordination complexes” (Kosan Biosciences, Inc., priority 2003, published 2005).

For data set [1], the system named is ErbB2 protein. The data set is described as follows: ErbB2 protein expression in glioma cells. In kind it is cell-based.
The conditions of data set [2]: clinical trials, cited from earlier work.
The subject of data set [3] is ErbB2 protein. The data set is described as follows: ErbB2 protein expression in SKBr3 cells. It counts as cell-based, human.
The conditions of data set [4]: background statement; cited from earlier work.
Data set [5] deals with SKBr cells (human breast cancer cells). The experiment in a line: Cell viability (MTS) drug combination assay, combination index, SKBr-3 cells. In kind it is cell-based. Conditions: combination with 17-AAG, CI<1 synergism. The method, then: Human colon adenocarcinoma cell line, DLD-1, and human breast adenocarcinoma cell line, SKBr-3, were obtained from American Type Culture Collection (manassas, VA). […] Other cytotoxic agents were purchased commercially from suppliers such as Sigma Chemical Co. (St. Louis, Mo.) and Sequoia Research Products (Oxford, UK). Cells were seeded in duplicate in 96-well microtiter plates at a density of 5,000 cells per well and allowed to attach overnight. […] Cell viability was determined using the MTS assay (Promega). […] Based on the IC50 values of each individual drug, combined drug treatment was designed at constant ratios of two drugs, i.e., equivalent to the ratio of their IC50. […] The drug was then added to the cells and incubated for 48 hours. […] Cell viability was determined by the MTS assay. Synergism, additivity or antagonism was determined by median effect analysis using the combination index (CI) calculated using Calcusyn (Biosoft, Cambridge, UK). […] The quantities [Dx]1 and [Dx]2 represent the concentrations of the first and second drug, respectively, that when used alone provide a response of x % in the assay. […] The “enhancing” effect of two drugs can also be determined.

In data set [6] the test system is DLD-1 cells (human colorectal cancer cells). The data set is described as follows: Cell viability (MTS) drug combination assay, combination index, DLD-1 cells. In kind it is cell-based. The settings on record: combination with 17-AAG, CI<1 synergism. The method, then: Human colon adenocarcinoma cell line, DLD-1, and human breast adenocarcinoma cell line, SKBr-3, were obtained from American Type Culture Collection (manassas, VA). […] Other cytotoxic agents were purchased commercially from suppliers such as Sigma Chemical Co. (St. Louis, Mo.) and Sequoia Research Products (Oxford, UK). Cells were seeded in duplicate in 96-well microtiter plates at a density of 5,000 cells per well and allowed to attach overnight. […] Cell viability was determined using the MTS assay (Promega). […] Based on the IC50 values of each individual drug, combined drug treatment was designed at constant ratios of two drugs, i.e., equivalent to the ratio of their IC50. Two treatment schedules were used: In one schedule, the cells were exposed to 24 hours of 17-AAG or 17-DMAG. The drug was then added to the cells and incubated for 48 hours. […] Cell viability was determined by the MTS assay. Synergism, additivity or antagonism was determined by median effect analysis using the combination index (CI) calculated using Calcusyn (Biosoft, Cambridge, UK). […] The quantities [Dx]1 and [Dx]2 represent the concentrations of the first and second drug, respectively, that when used alone provide a response of x % in the assay. […] The “enhancing” effect of two drugs can also be determined.

[7] abbreviates: 17-AAG Post-Administration (platinum complex 24 h, then 17-AAG 48 h).

Read-outs that look alike come from different tables or passages of the source.

As for “17-(allylamino)-17-desmethoxygeldanamycin [17-AAG]”, the “expression of ErbB2 protein” value with ErbB2 protein [1] and in the data set with ErbB2 protein [3] was “reduced the expression of ErbB2 protein” in each case. Also, the MTD result in data set [2] (daily x 5 schedule) is recorded as “about 40 mg/m^2”; in data set [2] (once-weekly regimen) it was “about 308 mg/m^2”; in data set [2] (twice-weekly regimen), “about 220 mg/m^2”. Besides, in data set [4], the hepatotoxicity entry is listed as “reduced hepatotoxicity”.
`CO[C@H]1/C=C\C=C(/C)C(=O)NC2=CC(=O)C(NCCN(C)C)=C(C[C@@H](C)C[C@H](OC)[C@H](O)[C@@H](C)/C=C(\C)[C@@H]1OC(N)=O)C2=O` [17-DMAG, 17-(2-dimethylaminoethyl)amino-17-desmethoxygeldanamycin]: the “expression of ErbB2 protein” value with ErbB2 protein [1] and with ErbB2 protein [3] was “reduced the expression of ErbB2 protein” each time.
As to `N.N.[Cl][Pt][Cl]` [Cisplatin, cisplatin], the “CI value (combination index)” value was “Enhancement” in data set [5] (setting [7]); “No Effect” in data set [5] (17-AAG Pre-Administration (17-AAG 24 h, then platinum complex 48 h)); “No Effect” in data set [6] (setting [7]); “No Effect” in data set [6] (17-AAG Pre-Administration (17-AAG 24 h, then platinum complex 48 h), CI=1 additivity, CI>1 antagonism).
For the compound `COC1=C2C[C@@H](C)C[C@H](OC)[C@H](O)[C@@H](C)/C=C(\C)[C@H](OC(N)=O)[C@@H](OC)/C=C\C=C(/C)C(=O)NC(=CC1=O)C2=O` [geldanamycin, Geldanamycin], the hepatotoxicity result in data set [4] is “unacceptable hepatotoxicity”.
